# Assay results published in US9216991B2 (Ares Trading S.A., priority 2012, dated 2015).
# Where a name gives a salt, the structure may show the parent alone.
# Target: T1, IRAK4 (Homo sapiens, UniProt Q9NWZ3)
# T1 construct: His (N); TEV cleavage site (N)
# T1 sequence (Q9NWZ3 1-460): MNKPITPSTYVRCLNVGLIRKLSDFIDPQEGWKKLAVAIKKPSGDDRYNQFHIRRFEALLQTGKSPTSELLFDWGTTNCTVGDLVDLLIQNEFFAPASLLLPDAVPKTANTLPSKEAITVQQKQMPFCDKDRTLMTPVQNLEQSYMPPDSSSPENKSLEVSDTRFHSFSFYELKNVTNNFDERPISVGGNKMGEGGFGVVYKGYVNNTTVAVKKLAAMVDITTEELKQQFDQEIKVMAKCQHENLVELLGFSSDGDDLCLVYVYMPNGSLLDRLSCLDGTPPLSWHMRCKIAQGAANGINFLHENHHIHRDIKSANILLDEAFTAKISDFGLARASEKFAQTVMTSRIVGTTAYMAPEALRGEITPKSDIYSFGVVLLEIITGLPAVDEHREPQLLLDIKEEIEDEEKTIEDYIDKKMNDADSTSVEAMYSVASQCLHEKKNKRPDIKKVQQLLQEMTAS
# Test: IRAK4 Enzymatic Assay
# Type: biochemical
# Details: His-TEV-IRAK4 20 ng/well, ATP 2 μM, STK1-biotin peptide 300 nM, 3 hours at 30° C., FlashPlate radioactivity
# Method in brief: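 Recombinant His-TEV-tagged IRAK4 (20 ng/well) phosphorylates biotinylated STK1 peptide (300 nM) with 2 μM ATP plus [^33P]ATP, 3 h at 30 °C in pH 7.0 HEPES buffer with MgCl2 and MnCl2; compounds tested 20 μM to 1 nM. Reaction stopped with EDTA; incorporated radioactivity counted on streptavidin FlashPlates.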
row,Compound,IC50 [µM]
1,"Cn1cc(-c2cccc(-c3ncc(-c4cnn(C5CCN(CC(O)C(F)(F)F)CC5)c4)cn3)c2)cn1 (centres unmarked) [Example 31, 1,1,1-Trifluoro-3-[4-(4-{2-[3-(1-methyl-1H-pyrazol-4-yl)-phenyl]-pyrimidin-5-yl}-pyrazol-1-yl)-piperidin-1-yl]-propan-2-ol]",0.1 to 1
2,"CC(=O)N1[C@@H]2CC[C@H]1CC(n1cc(-c3cnc(-c4cccc(-c5cnn(C)c5)c4)nc3)cn1)C2 (stereo partly drawn) [Example 119, 1-[(1R,5S)-3-(4-{2-[3-(1-Methyl-1H-pyrazol-4-yl)-phenyl]-pyrimidin-5-yl}-pyrazol-1-yl)-8-aza-bicyclo[3.2.1]oct-8-yl]-ethanone]",0.1 to 1
3,"Cc1ncc(-c2cccc(-c3ncc(-c4cnn(CC(=O)N5CCCC5)c4)cn3)c2)s1 [Example 56, 2-(4-{2-[3-(2-Methyl-thiazol-5-yl)-phenyl]-pyrimidin-5-yl}-pyrazol-1-yl)-1-pyrrolidin-1-yl-ethanone]",0.1 to 1
4,"Cn1cc(-c2cccc(-c3ncc(-c4cnn(CC5CCOC5)c4)cn3)c2)cn1 (centres unmarked) [Example 45, 2-[3-(1-Methyl-1H-pyrazol-4-yl)-phenyl]-5-[1-(tetrahydro-furan-3-ylmethyl)-1H-pyrazol-4-yl]-pyrimidine]",0.1 to 1
5,"Cn1cc(-c2cccc(-c3ncc(-c4cnn(C5CCN(C(=O)C6CC(=O)C6)CC5)c4)cn3)c2)cn1 [Example 117, 3-[4-(4-{2-[3-(1-Methyl-1H-pyrazol-4-yl)-phenyl]-pyrimidin-5-yl}-pyrazol-1-yl)-piperidine-1-carbonyl]-cyclobutanone]",0.1 to 1
6,"Cn1cc(-c2cccc(-c3ncc(-c4cnn(CCC(=O)N5CCCC5)c4)cn3)c2)cn1 [Example 84, 3-(4-{2-[3-(1-Methyl-1H-pyrazol-4-yl)-phenyl]-pyrimidin-5-yl}-pyrazol-1-yl)-1-pyrrolidin-1-yl-propan-1-one]",1 to 5
7,"c1cc(-c2ccncc2)cc(-c2ncc(-c3cnn(C4CCNCC4)c3)cn2)c1 [Example 33, 5-(1-Piperidin-4-yl-1H-pyrazol-4-yl)-2-(3-pyridin-4-yl-phenyl)-pyrimidine hydrochloride]",0.1 to 1
8,"Cn1cc(-c2cc(F)cc(-c3ncc(-c4cnn(C5CCNCC5)c4)cn3)c2)cn1 [Example 24, 2-[3-Fluoro-5-(1-methyl-1H-pyrazol-4-yl)-phenyl]-5-(1-piperidin-4-yl-1H-pyrazol-4-yl)-pyrimidine hydrochloride]",0.1 to 1
9,"CN1CCN(C(=O)Cn2cc(-c3cnc(-c4cccc(-c5cnn(C)c5)c4)nc3)cn2)CC1 [Example 51, 1-(4-Methyl-piperazin-1-yl)-2-(4-{2-[3-(1-methyl-1H-pyrazol-4-yl)-phenyl]-pyrimidin-5-yl}-pyrazol-1-yl)-ethanone hydrochloride]",0.1 to 1
10,"c1cc(-c2ccoc2)cc(-c2ncc(-c3cnn(C4CCNCC4)c3)cn2)c1 [Example 7, 2-(3-Furan-3-yl-phenyl)-5-(1-piperidin-4-yl-1H-pyrazol-4-yl)-pyrimidine Hydrochloride]",0.1 to 1
11,"COC1CN(C(=O)Cn2cc(-c3cnc(-c4cccc(-c5cnn(C)c5)c4)nc3)cn2)C1 [Example 40, 1-(3-Methoxy-azetidin-1-yl)-2-(4-{2-[3-(1-methyl-1H-pyrazol-4-yl)-phenyl]-pyrimidin-5-yl}-pyrazol-1-yl)-ethanone]",0.1 to 1
12,"Cn1cc(-c2cccc(-c3ncc(-c4cnn(CC(=O)N5CCOC(CCO)C5)c4)cn3)c2)cn1 (centres unmarked) [Example 75, 1-[2-(2-Hydroxy-ethyl)-morpholin-4-yl]-2-(4-{2-[3-(1-methyl-1H-pyrazol-4-yl)-phenyl]-pyrimidin-5-yl}-pyrazol-1-yl)-ethanone]",0.1 to 1
13,"c1cc(-c2cnoc2)cc(-c2ncc(-c3cnn(C4CCNCC4)c3)cn2)c1 [Example 13, 2-(3-Isoxazol-4-yl-phenyl)-5-(1-piperidin-4-yl-1H-pyrazol-4-yl)-pyrimidine hydrochloride]",0.1 to 1
14,"CC(=O)N1CC[C@H](n2cc(-c3cnc(-c4cccc(-c5cnn(C)c5)c4)nc3)cn2)C1 [Example 126, 1-[(S)-3-(4-{2-[3-(1-Methyl-1H-pyrazol-4-yl)-phenyl]-pyrimidin-5-yl}-pyrazol-1-yl)-pyrrolidin-1-yl]-ethanone]",0.1 to 1
15,"Cn1cc(-c2cccc(-c3ncc(-c4cnn(CC(=O)N5CCCC5)c4)cn3)c2)cn1 [Example 9, 2-(4-{2-[3-(1-Methyl-1H-pyrazol-4-yl)-phenyl]-pyrimidin-5-yl}-pyrazol-1-yl)-1-pyrrolidin-1-yl-ethanone]",0.1 to 1
16,"COCCC1CN(C(=O)Cn2cc(-c3cnc(-c4cccc(-c5cnn(C)c5)c4)nc3)cn2)CCO1 (centres unmarked) [Example 87, 1-[2-(2-Methoxy-ethyl)-morpholin-4-yl]-2-(4-{2-[3-(1-methyl-1H-pyrazol-4-yl)-phenyl]-pyrimidin-5-yl}-pyrazol-1-yl)-ethanone]",0.1 to 1

# Results, then the compound that gave them:
row,IC50 [µM],Compound
1,< 0.1,"CN(C)C[C@H]1CC[C@H](n2cc(-c3cnc(-c4cccc(-c5cnn(C)c5)c4)nc3)cn2)CC1 [Example 232, Trans-dimethyl-[4-(4-{2-[3-(1-methyl-1H-pyrazol-4-yl)-phenyl]-pyrimidin-5-yl}-pyrazol-1-yl)-cyclohexylmethyl]-amine]"
2,0.1 to 1,"Cc1cc(-c2cccc(-c3ncc(-c4cnn([C@H]5CC[C@H](C(=O)N(C)C)CC5)c4)cn3)c2)ccn1 [Example 229, Trans-4-(4-{2-[3-(2-Methyl-pyridin-4-yl)-phenyl]-pyrimidin-5-yl}-pyrazol-1-yl)-cyclohexanecarboxylic acid dimethylamide]"
3,0.1 to 1,"Cn1cc(-c2cccc(-c3ncc(-c4cnn(C5CCC6(CCC(=O)N6)CC5)c4)cn3)c2)cn1 (single isomer, unassigned) [Example 251, Trans-8-(4-{2-[3-(1-Methyl-1H-pyrazol-4-yl)-phenyl]-pyrimidin-5-yl}-pyrazol-1-yl)-1-aza-spiro[4.5]decan-2-one]"
4,0.1 to 1,"CC(=O)N1CC[C@H](n2cc(-c3cnc(-c4cccc(-c5cnn(C)c5)c4)nc3)cn2)[C@@H](O)C1 [Example 225, 1-[(3S,4S)-3-Hydroxy-4-(4-{2-[3-(1-methyl-1H-pyrazol-4-yl)-phenyl]-pyrimidin-5-yl}-pyrazol-1-yl)-piperidin-1-yl]-ethanone]"
5,< 0.1,"CO[C@H]1CN(C(=O)[C@H]2CC[C@H](n3cc(-c4cnc(-c5cccc(-c6cnn(C)c6)c5)nc4)cn3)CC2)C[C@@H]1O (relative stereo) [Example 245, (Trans-3-Hydroxy-4-methoxy-pyrrolidin-1-yl)-[4-Trans-(4-{2-[3-(1-methyl-1H-pyrazol-4-yl)-phenyl]-pyrimidin-5-yl}-pyrazol-1-yl)-cyclohexyl]-methanone]"
6,< 0.1,"Cn1cc(-c2cccc(-c3ncc(-c4cnn(C5CCC(C(=O)N6CCO[C@H](CO)C6)CC5)c4)cn3)c2)cn1 (stereo partly drawn) [Example 261, ((S)-2-Hydroxymethyl-morpholin-4-yl)-[4-((S)-4-{2-[3-(1-methyl-1H-pyrazol-4-yl)-phenyl]-pyrimidin-5-yl}-pyrazol-1-yl)-cyclohexyl]-methanone]"
7,0.1 to 1,"COCCO[C@H]1CC[C@@H](n2cc(-c3cnc(-c4cccc(-c5cnn(C)c5)c4)nc3)cn2)CC1 [Example 218, cis-5-{1-[4-(2-Methoxy-ethoxy)-cyclohexyl]-1H-pyrazol-4-yl}-2-[3-(1-methyl-1H-pyrazol-4-yl)-phenyl]-pyrimidine]"
8,< 0.1,"CN1C[C@]2(CC[C@H](n3cc(-c4cnc(-c5cccc(-c6cnn(C)c6)c5)nc4)cn3)CC2)CC1=O [Example 260, trans-2-Methyl-8-(4-{2-[3-(1-methyl-1H-pyrazol-4-yl)-phenyl]-pyrimidin-5-yl}-pyrazol-1-yl)-2-aza-spiro[4.5]decan-3-one]"
9,0.1 to 1,"Cn1cc(-c2cccc(-c3ncc(-c4cnn(C5CCNCC5(F)F)c4)cn3)c2)cn1 (centres unmarked) [Example 259, 5-[1-(3,3-Difluoro-piperidin-4-yl)-1H-pyrazol-4-yl]-2-[3-(1-methyl-1H-pyrazol-4-yl)-phenyl]-pyrimidine]"
10,0.1 to 1,"CC(C)N1C2CCCC1CC(n1cc(-c3cnc(-c4cccc(-c5cnn(C)c5)c4)nc3)cn1)C2 (centres unmarked) [Example 133, 9-Isopropyl-3-(4-{2-[3-(1-methyl-1H-pyrazol-4-yl)-phenyl]-pyrimidin-5-yl}-pyrazol-1-yl)-9-aza-bicyclo[3.3.1]nonane]"
11,0.1 to 1,"CN(C)C(=O)C1CC(n2cc(-c3cnc(-c4cccc(-c5cnn(C)c5)c4)nc3)cn2)C1 (centres unmarked) [Example 158, 3-(4-{2-[3-(1-Methyl-1H-pyrazol-4-yl)-phenyl]-pyrimidin-5-yl}-pyrazol-1-yl)-cyclobutanecarboxylic acid dimethylamide]"
12,< 0.1,"Cn1cc(-c2cccc(-c3ncc(-c4cnn(C5CCOC6(CCOCC6)C5)c4)cn3)c2)cn1 (centres unmarked) [Example 267, 5-[1-(1,9-Dioxa-spiro[5.5]undec-4-yl)-1H-pyrazol-4-yl]-2-[3-(1-methyl-1H-pyrazol-4-yl)-phenyl]-pyrimidine]"
13,< 0.1,"CC(=O)N[C@H]1CC[C@@H](n2cc(-c3cnc(-c4cccc(-c5cnn(C)c5)c4)nc3)cn2)CC1 [Example 161, Cis-N-[4-(4-{2-[3-(1-Methyl-1H-pyrazol-4-yl)-phenyl]-pyrimidin-5-yl}-pyrazol-1-yl)-cyclohexyl]-acetamide]"
